Measurements: patent US9409905B2, “Antibacterial compounds and methods for use” (PTC THERAPEUTICS, INC., priority 2011, dated 2016)
Values after ≈ are worked out from the molar mass of the structure shown.

Experiments:
[1] = system: E. coli LZ3111; test: Antibacterial activity, MIC, quinolone resistant strain (Table 2); format: cell-based; conditions: Escherichia coli, LZ3111, read-out: MIC LZ3111
Method in brief: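 Growth inhibition assessed by serial drug dilution in broth; endpoint was absence of macroscopically visible growth, reported as MIC, μg/mL.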

[2] = system: E. coli 25922; test: Antibacterial activity, microbroth dilution MIC (Table 1); format: cell-based, Escherichia coli; conditions: Escherichia coli; microbroth dilution; control Gram-negative E. coli 25922 strain; read-out: MIC, 25922
Method in brief: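 In a microbroth dilution test, the minimum inhibitory concentration was defined as the lowest compound level preventing growth seen by eye, and was given in μg/mL.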

[3] = system: Escherichia coli (E. coli) BAS849; test: as above; format: cell-based; conditions: microbroth dilution, super sensitive Gram-negative E. coli BAS849, read-out: MIC, BAS849
Method in brief: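 Using broth microdilution, MIC endpoints (μg/mL) mark where visible growth no longer appears; the panel spans sensitive and control Gram-negative strains plus a Gram-positive strain.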

[4] = system: Staphylococcus aureus (S. aureus) 29213; test: as above; format: cell-based; conditions: microbroth dilution, Gram-positive S. aureus 29213, read-out: MIC, 29213
Method in brief: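 Microbroth dilution was used. MIC, in μg/mL, is the lowest drug concentration preventing macroscopically visible growth under the test conditions.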

[5] = system: Pseudomonas aeruginosa (P. aeruginosa) 27853; test: Antibacterial activity, MIC (Table 5); format: cell-based; conditions: P. aeruginosa 27853, read-out: MIC, 27853
Method in brief: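 Using a microbroth dilution format, the minimum inhibitory concentration was recorded as the lowest tested concentration that stopped visible bacterial growth, expressed in μg/mL.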

[6] = system: Klebsiella pneumoniae (K. pneumoniae) 35657; test: Antibacterial activity, MIC (Table 4); format: cell-based; conditions: K. pneumoniae 35657, read-out: MIC, 35657
Method in brief: (§1)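 Broth microdilution; MIC (μg/mL) = lowest concentration with no macroscopically visible growth. Resistant strains: multi-drug resistant clinical isolates.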

[7] = system: Acinetobacter baumannii (A. baumannii) BAA747; test: Antibacterial activity, MIC (Table 4); format: cell-based; conditions: A. baumannii BAA747, read-out: MIC, BAA747
Method in brief: as §1

[8] = system: K. pneumoniae MXX1232; test: Antibacterial activity, MIC, resistant strain (Table 4); format: cell-based; conditions: Klebsiella pneumoniae, MXX1232; resistant K. pneumoniae MMX1232, multi-drug resistant clinical isolate; read-out: MIC, MMX1232
Method in brief: as §1

[9] = system: A. baumannii MXX2240; test: as above; format: cell-based; conditions: Acinetobacter baumannii, MXX2240; resistant A. baumannii MMX2240, multi-drug resistant clinical isolate; read-out: MIC, MMX2240
Method in brief: as §1

Row | SMILES | MIC [1] | MIC [2] | MIC [3] | MIC [4] | MIC [5] | MIC [6] | MIC [7] | MIC [8] | MIC [9]
1 | COCC(C)NCc1cc2cc(-c3[nH]c(=O)c(C(=O)O)c(O)c3C)ccc2n1C (stereo not drawn) [Cpd 346, 4-hydroxy-6-(2-((1-methoxypropan-2-ylamino)methyl)-1-methyl-1H-indol-5-yl)-5-methyl-2-oxo-1,2-dihydropyridine-3-carboxylic acid] | 3.5 to 12.5 µg/mL (≈ 8.76 to 31.3 µM) | 12.5 to 150 µg/mL (≈ 31.3 to 376 µM) | < 1 µg/mL | 12.5 to 150 µg/mL (≈ 31.3 to 376 µM) | 12.5 to 150 µg/mL (≈ 31.3 to 376 µM) | 3.5 to 12.5 µg/mL (≈ 8.76 to 31.3 µM) | 3.5 to 12.5 µg/mL (≈ 8.76 to 31.3 µM) | 12.5 to 150 µg/mL (≈ 31.3 to 376 µM) | 3.5 to 12.5 µg/mL (≈ 8.76 to 31.3 µM)
2 | CCc1cc(C(=O)O)c(=O)[nH]c1-c1ccc2c(c1)cc(CN1CCN(C)CC1)n2C [Cpd 140, 5-ethyl-6-(1-methyl-2-((4-methylpiperazin-1-yl)methyl)-1H-indol-5-yl)-2-oxo-1,2-dihydropyridine-3-carboxylic acid] | 12.5 to 150 µg/mL (≈ 30.6 to 367 µM) | 1 to 3.5 µg/mL (≈ 2.45 to 8.57 µM) | < 1 µg/mL | 12.5 to 150 µg/mL (≈ 30.6 to 367 µM) | 12.5 to 150 µg/mL (≈ 30.6 to 367 µM) | 1 to 3.5 µg/mL (≈ 2.45 to 8.57 µM) | 3.5 to 12.5 µg/mL (≈ 8.57 to 30.6 µM) | 12.5 to 150 µg/mL (≈ 30.6 to 367 µM) | 12.5 to 150 µg/mL (≈ 30.6 to 367 µM)
3 | CCc1c(-c2ccc3c4c([nH]c3c2)CNCC4)[nH]c(=O)c(C(=O)O)c1O [Cpd 445, 5-ethyl-4-hydroxy-2-oxo-6-(2,3,4,9-tetrahydro-1H-pyrido[3,4-b]indol-7-yl)-1,2-dihydropyridine-3-carboxylic acid] | 12.5 to 150 µg/mL (≈ 35.4 to 424 µM) | 12.5 to 150 µg/mL (≈ 35.4 to 424 µM) | 3.5 to 12.5 µg/mL (≈ 9.9 to 35.4 µM) | 12.5 to 150 µg/mL (≈ 35.4 to 424 µM) | 12.5 to 150 µg/mL (≈ 35.4 to 424 µM) | 3.5 to 12.5 µg/mL (≈ 9.9 to 35.4 µM) | 12.5 to 150 µg/mL (≈ 35.4 to 424 µM) | 12.5 to 150 µg/mL (≈ 35.4 to 424 µM) | 12.5 to 150 µg/mL (≈ 35.4 to 424 µM)
4 | CN(C)Cc1cc2cc(-c3[nH]c(=O)c(C(=O)O)c(O)c3C3CC3)ccc2n1C [Cpd 322, 5-cyclopropyl-6-(2-((dimethylamino)methyl)-1-methyl-1H-indol-5-yl)-4-hydroxy-2-oxo-1,2-dihydropyridine-3-carboxylic acid] | 12.5 to 150 µg/mL (≈ 32.8 to 393 µM) | 12.5 to 150 µg/mL (≈ 32.8 to 393 µM) | 1 to 3.5 µg/mL (≈ 2.62 to 9.18 µM) | 12.5 to 150 µg/mL (≈ 32.8 to 393 µM) | 12.5 to 150 µg/mL (≈ 32.8 to 393 µM) | 12.5 to 150 µg/mL (≈ 32.8 to 393 µM) | 12.5 to 150 µg/mL (≈ 32.8 to 393 µM) | 12.5 to 150 µg/mL (≈ 32.8 to 393 µM) | 12.5 to 150 µg/mL (≈ 32.8 to 393 µM)
5 | CCc1c(-c2ccc3cc(CNC(C)CC)[nH]c3c2)[nH]c(=O)c(C(=O)O)c1O.Cl (stereo not drawn) [Cpd 443, 6-(2-((sec-butylamino)methyl)-1H-indol-6-yl)-5-ethyl-4-hydroxy-2-oxo-1,2-dihydropyridine-3-carboxylic acid hydrochloride] | 3.5 to 12.5 µg/mL | 3.5 to 12.5 µg/mL | 1 to 3.5 µg/mL | 3.5 to 12.5 µg/mL | 12.5 to 150 µg/mL | 3.5 to 12.5 µg/mL | 12.5 to 150 µg/mL | 12.5 to 150 µg/mL | 3.5 to 12.5 µg/mL
6 | CCc1c(-c2ccc3[nH]c(-c4ccc(C(F)(F)F)cc4)cc3c2)[nH]c(=O)c(C(=O)O)c1O [Cpd 455, 5-ethyl-4-hydroxy-2-oxo-6-(2-(4-(trifluoromethyl)phenyl)-1H-indol-5-yl)-1,2-dihydropyridine-3-carboxylic acid] | 12.5 to 150 µg/mL (≈ 28.3 to 339 µM) | 12.5 to 150 µg/mL (≈ 28.3 to 339 µM) | < 1 µg/mL | 3.5 to 12.5 µg/mL (≈ 7.91 to 28.3 µM) | 12.5 to 150 µg/mL (≈ 28.3 to 339 µM) | 12.5 to 150 µg/mL (≈ 28.3 to 339 µM) | 12.5 to 150 µg/mL (≈ 28.3 to 339 µM) | 12.5 to 150 µg/mL (≈ 28.3 to 339 µM) | 12.5 to 150 µg/mL (≈ 28.3 to 339 µM)
7 | Cc1c(-c2cccc3c2ccn3C)[nH]c(=O)c(C(=O)O)c1O [Cpd 404, 4-hydroxy-5-methyl-6-(1-methyl-1H-indol-4-yl)-2-oxo-1,2-dihydropyridine-3-carboxylic acid] | 12.5 to 150 µg/mL (≈ 41.9 to 503 µM) | 12.5 to 150 µg/mL (≈ 41.9 to 503 µM) | 3.5 to 12.5 µg/mL (≈ 11.7 to 41.9 µM) | 12.5 to 150 µg/mL (≈ 41.9 to 503 µM) | 12.5 to 150 µg/mL (≈ 41.9 to 503 µM) | 12.5 to 150 µg/mL (≈ 41.9 to 503 µM) | 12.5 to 150 µg/mL (≈ 41.9 to 503 µM) | 12.5 to 150 µg/mL (≈ 41.9 to 503 µM) | 12.5 to 150 µg/mL (≈ 41.9 to 503 µM)
8 | Cc1c(-c2ccc3c(c2)cc(CNC(C)CO)n3C)[nH]c(=O)c(C(=O)O)c1O (stereo not drawn) [Cpd 349, 4-hydroxy-6-(2-((1-hydroxypropan-2-ylamino)methyl)-1-methyl-1H-indol-5-yl)-5-methyl-2-oxo-1,2-dihydropyridine-3-carboxylic acid] | 3.5 to 12.5 µg/mL (≈ 9.08 to 32.4 µM) | 12.5 to 150 µg/mL (≈ 32.4 to 389 µM) | 1 to 3.5 µg/mL (≈ 2.59 to 9.08 µM) | 12.5 to 150 µg/mL (≈ 32.4 to 389 µM) | 12.5 to 150 µg/mL (≈ 32.4 to 389 µM) | 3.5 to 12.5 µg/mL (≈ 9.08 to 32.4 µM) | 12.5 to 150 µg/mL (≈ 32.4 to 389 µM) | 12.5 to 150 µg/mL (≈ 32.4 to 389 µM) | 12.5 to 150 µg/mL (≈ 32.4 to 389 µM)
